Reference: patent publication US8889123B2, “Compositions and soft tissue replacement methods” (Allergan, Inc., priority 2010, dated 2014)

What was measured:
FGF-2 [1] = experiment: Incisional wound model, FGF-2 expression in skin wound tissue by Western blot; assay type: in vivo, Sprague-Dawley rats; conditions: topical 0.004% twice daily vs vehicle
Description: (§1) To test whether the compounds of Formula I promote the formation of blood vessels, and incisional wound model was employed over a 14-day period. Sprague-Dawley rats (180-200 g) were anesthetized, the backs shaved, and a 2-cm long incision was made on the back skin of rats under sterile conditions, reaching the deep fascia. The wound was immediately closed with 4-0 sutures. The animals were topically treated with vehicle or Compound 1 at 0.004% twice daily. The vehicle contains ethanol 30%, propylene glycol 12%, dipropylene glycol 5%, benzyl alcohol 5%, glycerol 3% and normal saline 45%. Biopsy samples of skin wound tissues were analyzed with Western blots day-7 and day-14 post-surgery. Tissue samples about 1 mm thick were taken from both sides of the wound. Protein was extracted, and FGF-2/VEGF expression was monitored, with Western blot analysis.

VEGF [2] = experiment: Incisional wound model, VEGF expression in skin wound tissue by Western blot; assay type: in vivo, Sprague-Dawley rats; conditions: topical 0.004% twice daily vs vehicle
Description: as §1

FGF-2 [3] = experiment: Oral ulcer wound model, FGF-2 up-regulation; assay type: in vivo
VEGF [4] = experiment: Oral ulcer wound model, VEGF up-regulation; assay type: in vivo

For `CC1(C)C(=O)[C@H](C/C=C\CCCC(=O)O)[C@@H](/C=C/[C@H](O)CCc2sc3ccccc3c2Cl)[C@@H]1O` [Compound 1], the “enhanced expression of FGF-2, normalized with β-actin” value (FGF-2 [1]; day-7, P=0.004) was 60%, the “increase in FGF-2 synthesis over the whole study period” value (FGF-2 [1]; whole study period (day-14), P=0.04) was “persisted for the whole study period” and the “VEGF expression increase, normalized with β-actin” value (VEGF [2]; day-7, P=0.039) was 25%. The “increase in VEGF synthesis by day-14” value (VEGF [2]; day-14) was “returned to the baseline”, the “up-regulation of FGF-2” value (FGF-2 [3]) was “up-regulation” and the “up-regulation of VEGF” value (VEGF [4]) was “up-regulation”.
